{"source": "patent US8426437B2", "about": "“Pyrroloquinoline derivatives and their use as protein kinases inhibitors” (Pierre Fabre Medicament, priority 2005, dated 2013)", "type_in_all_cases": "biochemical", "key": {"PKBγ (h)": {"molecular_target": "T1, PKBγ (h) (Homo sapiens, UniProt Q9Y243)", "T1 construct": "purchased Upstate", "T1 sequence (Q9Y243 whole entry)": "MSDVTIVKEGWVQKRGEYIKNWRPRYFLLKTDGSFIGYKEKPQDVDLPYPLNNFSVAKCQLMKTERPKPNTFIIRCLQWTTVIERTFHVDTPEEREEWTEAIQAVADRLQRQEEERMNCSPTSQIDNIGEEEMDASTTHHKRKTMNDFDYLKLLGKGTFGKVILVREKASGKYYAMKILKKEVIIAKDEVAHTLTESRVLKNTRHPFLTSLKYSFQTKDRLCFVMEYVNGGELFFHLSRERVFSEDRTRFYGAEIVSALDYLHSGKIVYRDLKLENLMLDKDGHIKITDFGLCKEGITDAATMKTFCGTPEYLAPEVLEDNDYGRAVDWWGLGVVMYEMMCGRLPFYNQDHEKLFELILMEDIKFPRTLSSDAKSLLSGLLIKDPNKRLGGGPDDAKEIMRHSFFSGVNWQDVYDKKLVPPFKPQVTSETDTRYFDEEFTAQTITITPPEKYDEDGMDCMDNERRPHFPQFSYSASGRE", "test": "Upstate kinase panel: PKBγ", "description": "(§1) These kinases are produced by Upstate and screened according to the respective protocols indicated by the supplier (http://www.upstate.com/features/kp_protocols.asp). Examples 1, 12, 166 and 238 were tested at a concentration of 20 μM, 10 μM, 1 μM and 1 μM respectively in the presence of 10 μM of ATP for examples 1 and 12 and at the concentrations of ATP shown in parentheses for examples 166 and 238. The results shown in Table VII correspond to percentage inhibition of the kinase tested in the presence of the compound, relative to a control effected without the compound."}, "IKKβ (h)": {"molecular_target": "T2, IKKβ (h) (Homo sapiens, UniProt O14920)", "T2 construct": "purchased Upstate", "T2 sequence (O14920 1-756)": "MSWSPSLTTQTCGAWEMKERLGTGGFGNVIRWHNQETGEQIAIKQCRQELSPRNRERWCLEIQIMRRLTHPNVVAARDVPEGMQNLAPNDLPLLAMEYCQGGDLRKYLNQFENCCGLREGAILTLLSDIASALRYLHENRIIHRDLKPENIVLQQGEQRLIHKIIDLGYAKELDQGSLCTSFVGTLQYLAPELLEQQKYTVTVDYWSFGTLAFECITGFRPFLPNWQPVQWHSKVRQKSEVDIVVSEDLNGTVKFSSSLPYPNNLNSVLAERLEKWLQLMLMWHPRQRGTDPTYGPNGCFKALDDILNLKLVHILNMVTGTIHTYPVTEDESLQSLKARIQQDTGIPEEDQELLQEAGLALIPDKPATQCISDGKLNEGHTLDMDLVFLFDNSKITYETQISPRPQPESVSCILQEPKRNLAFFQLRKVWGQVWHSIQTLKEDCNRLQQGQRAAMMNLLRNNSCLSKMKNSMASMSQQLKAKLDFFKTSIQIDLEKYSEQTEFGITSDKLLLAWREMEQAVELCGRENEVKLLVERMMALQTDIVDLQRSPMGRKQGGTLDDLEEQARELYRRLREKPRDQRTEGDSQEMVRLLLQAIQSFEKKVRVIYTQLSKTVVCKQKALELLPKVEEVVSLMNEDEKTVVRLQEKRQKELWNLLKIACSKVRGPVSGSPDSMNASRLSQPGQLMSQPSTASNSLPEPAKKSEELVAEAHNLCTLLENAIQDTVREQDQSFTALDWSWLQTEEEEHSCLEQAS", "test": "Upstate kinase panel: IKKβ", "description": "as §1"}, "PDGFRβ (h)": {"molecular_target": "T3, PDGFRβ (h) (Homo sapiens, UniProt P09619)", "T3 construct": "purchased Upstate", "T3 sequence (P09619 33-1106)": "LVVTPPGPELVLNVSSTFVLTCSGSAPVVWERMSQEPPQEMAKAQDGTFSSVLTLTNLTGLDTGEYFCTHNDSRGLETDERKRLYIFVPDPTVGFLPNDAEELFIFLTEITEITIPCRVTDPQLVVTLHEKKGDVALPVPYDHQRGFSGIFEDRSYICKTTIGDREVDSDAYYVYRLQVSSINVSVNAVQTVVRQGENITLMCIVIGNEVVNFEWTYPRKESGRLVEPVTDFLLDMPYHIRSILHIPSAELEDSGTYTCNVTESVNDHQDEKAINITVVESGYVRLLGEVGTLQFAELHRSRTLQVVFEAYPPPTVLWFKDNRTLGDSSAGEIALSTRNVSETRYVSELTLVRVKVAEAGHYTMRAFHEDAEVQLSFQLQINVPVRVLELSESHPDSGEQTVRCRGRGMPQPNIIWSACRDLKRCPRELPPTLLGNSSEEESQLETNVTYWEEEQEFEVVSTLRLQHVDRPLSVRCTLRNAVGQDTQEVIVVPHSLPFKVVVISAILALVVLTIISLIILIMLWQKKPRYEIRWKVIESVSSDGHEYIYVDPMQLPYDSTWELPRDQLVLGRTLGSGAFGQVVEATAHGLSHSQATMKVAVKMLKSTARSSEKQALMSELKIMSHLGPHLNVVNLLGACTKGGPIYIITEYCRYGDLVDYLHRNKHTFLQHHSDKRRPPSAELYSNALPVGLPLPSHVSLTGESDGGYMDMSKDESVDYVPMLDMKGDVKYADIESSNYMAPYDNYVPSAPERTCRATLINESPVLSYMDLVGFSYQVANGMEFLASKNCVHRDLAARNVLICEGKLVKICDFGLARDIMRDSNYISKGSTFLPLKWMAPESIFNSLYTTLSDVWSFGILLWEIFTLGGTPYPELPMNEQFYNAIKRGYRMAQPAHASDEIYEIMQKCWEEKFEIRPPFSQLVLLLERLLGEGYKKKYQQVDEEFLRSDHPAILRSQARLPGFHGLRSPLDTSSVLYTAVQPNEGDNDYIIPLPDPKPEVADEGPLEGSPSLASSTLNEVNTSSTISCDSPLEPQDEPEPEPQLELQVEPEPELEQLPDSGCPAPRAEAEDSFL", "test": "Upstate kinase panel: PDGFRβ", "description": "as §1"}, "Flt3 (h)": {"molecular_target": "T4, Flt3 (h) (Homo sapiens, UniProt P36888)", "T4 construct": "purchased Upstate", "T4 sequence (P36888 27-993)": "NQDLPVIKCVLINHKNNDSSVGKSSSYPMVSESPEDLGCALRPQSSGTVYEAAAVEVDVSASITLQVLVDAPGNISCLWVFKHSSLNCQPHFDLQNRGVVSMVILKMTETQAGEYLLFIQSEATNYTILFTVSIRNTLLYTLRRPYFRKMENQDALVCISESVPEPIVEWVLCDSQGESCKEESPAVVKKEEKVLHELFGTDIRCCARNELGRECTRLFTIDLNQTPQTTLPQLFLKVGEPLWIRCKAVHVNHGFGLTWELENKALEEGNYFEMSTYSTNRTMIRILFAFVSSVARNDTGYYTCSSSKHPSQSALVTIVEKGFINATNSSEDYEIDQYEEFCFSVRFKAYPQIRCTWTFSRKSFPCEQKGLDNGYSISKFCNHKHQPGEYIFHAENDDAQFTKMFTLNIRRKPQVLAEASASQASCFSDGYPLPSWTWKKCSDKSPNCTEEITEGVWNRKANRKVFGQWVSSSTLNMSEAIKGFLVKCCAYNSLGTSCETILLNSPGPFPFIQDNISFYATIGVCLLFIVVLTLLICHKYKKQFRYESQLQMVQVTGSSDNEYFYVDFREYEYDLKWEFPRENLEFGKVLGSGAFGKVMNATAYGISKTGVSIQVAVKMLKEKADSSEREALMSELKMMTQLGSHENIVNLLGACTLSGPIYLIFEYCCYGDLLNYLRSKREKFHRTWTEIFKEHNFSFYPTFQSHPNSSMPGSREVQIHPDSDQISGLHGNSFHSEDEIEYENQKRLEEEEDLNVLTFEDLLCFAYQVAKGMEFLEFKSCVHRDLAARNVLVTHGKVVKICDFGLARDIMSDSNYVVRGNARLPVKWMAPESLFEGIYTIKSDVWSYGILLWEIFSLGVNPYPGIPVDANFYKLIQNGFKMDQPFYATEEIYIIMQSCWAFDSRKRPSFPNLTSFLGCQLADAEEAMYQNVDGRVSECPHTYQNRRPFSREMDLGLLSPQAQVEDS", "test": "Upstate kinase panel: Flt3", "description": "as §1"}, "EGFR (h)": {"molecular_target": "T5, EGFR (h) (Homo sapiens, UniProt P00533)", "T5 construct": "purchased Upstate", "T5 sequence (P00533 25-1210)": "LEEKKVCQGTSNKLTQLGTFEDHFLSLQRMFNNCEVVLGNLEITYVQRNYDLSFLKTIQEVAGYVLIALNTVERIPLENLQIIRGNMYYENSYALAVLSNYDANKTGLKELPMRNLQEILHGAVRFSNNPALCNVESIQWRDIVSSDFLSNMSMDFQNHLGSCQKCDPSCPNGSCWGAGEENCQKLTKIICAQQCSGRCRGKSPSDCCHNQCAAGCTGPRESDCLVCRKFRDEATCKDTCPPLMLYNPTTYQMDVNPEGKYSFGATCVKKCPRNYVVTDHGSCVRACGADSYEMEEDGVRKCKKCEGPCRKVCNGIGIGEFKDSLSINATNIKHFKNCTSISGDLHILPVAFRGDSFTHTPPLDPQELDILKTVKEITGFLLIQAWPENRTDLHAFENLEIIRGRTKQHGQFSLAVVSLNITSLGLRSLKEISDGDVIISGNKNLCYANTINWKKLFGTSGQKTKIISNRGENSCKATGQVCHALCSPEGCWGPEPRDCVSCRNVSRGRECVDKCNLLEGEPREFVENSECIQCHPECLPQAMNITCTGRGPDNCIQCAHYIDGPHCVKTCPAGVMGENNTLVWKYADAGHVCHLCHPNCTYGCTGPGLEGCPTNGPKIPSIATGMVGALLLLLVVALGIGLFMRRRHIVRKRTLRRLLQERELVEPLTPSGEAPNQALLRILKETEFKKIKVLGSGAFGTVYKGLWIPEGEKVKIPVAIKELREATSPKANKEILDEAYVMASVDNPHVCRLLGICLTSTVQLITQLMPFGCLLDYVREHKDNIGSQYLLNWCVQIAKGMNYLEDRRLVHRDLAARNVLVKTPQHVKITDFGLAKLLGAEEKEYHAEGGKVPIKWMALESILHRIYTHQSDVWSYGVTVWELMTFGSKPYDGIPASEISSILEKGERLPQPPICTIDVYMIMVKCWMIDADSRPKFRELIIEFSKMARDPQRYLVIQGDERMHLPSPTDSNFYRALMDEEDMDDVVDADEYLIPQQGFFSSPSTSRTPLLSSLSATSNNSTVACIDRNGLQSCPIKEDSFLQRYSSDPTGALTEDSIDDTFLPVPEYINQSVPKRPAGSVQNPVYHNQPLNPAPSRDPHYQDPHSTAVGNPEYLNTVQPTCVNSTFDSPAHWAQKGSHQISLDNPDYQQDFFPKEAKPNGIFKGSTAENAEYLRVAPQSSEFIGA", "test": "Upstate kinase panel: EGFR", "description": "as §1"}, "cSRC (h)": {"molecular_target": "T6, cSRC (h) (Homo sapiens, UniProt P12931)", "T6 construct": "purchased Upstate", "T6 sequence (P12931 whole entry)": "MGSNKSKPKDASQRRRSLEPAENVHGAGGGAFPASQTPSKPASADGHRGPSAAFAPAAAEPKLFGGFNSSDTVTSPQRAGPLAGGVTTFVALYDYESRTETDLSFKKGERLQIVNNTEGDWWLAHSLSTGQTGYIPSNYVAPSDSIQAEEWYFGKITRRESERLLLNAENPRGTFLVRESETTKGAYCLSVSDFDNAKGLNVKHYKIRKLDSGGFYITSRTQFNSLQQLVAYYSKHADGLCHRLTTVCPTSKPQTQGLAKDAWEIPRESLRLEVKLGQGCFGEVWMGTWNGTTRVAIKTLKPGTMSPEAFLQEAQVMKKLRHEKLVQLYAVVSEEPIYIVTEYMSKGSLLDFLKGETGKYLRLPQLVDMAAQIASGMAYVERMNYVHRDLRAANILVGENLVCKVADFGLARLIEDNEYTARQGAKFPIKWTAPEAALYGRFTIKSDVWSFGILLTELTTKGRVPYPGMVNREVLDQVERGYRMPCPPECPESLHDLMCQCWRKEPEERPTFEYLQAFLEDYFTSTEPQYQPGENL", "test": "Upstate kinase panel: cSRC", "description": "as §1"}, "ROCK-II (h)": {"molecular_target": "T7, ROCK-II (h) (Homo sapiens, UniProt O75116)", "T7 construct": "purchased Upstate", "T7 sequence (O75116 whole entry)": "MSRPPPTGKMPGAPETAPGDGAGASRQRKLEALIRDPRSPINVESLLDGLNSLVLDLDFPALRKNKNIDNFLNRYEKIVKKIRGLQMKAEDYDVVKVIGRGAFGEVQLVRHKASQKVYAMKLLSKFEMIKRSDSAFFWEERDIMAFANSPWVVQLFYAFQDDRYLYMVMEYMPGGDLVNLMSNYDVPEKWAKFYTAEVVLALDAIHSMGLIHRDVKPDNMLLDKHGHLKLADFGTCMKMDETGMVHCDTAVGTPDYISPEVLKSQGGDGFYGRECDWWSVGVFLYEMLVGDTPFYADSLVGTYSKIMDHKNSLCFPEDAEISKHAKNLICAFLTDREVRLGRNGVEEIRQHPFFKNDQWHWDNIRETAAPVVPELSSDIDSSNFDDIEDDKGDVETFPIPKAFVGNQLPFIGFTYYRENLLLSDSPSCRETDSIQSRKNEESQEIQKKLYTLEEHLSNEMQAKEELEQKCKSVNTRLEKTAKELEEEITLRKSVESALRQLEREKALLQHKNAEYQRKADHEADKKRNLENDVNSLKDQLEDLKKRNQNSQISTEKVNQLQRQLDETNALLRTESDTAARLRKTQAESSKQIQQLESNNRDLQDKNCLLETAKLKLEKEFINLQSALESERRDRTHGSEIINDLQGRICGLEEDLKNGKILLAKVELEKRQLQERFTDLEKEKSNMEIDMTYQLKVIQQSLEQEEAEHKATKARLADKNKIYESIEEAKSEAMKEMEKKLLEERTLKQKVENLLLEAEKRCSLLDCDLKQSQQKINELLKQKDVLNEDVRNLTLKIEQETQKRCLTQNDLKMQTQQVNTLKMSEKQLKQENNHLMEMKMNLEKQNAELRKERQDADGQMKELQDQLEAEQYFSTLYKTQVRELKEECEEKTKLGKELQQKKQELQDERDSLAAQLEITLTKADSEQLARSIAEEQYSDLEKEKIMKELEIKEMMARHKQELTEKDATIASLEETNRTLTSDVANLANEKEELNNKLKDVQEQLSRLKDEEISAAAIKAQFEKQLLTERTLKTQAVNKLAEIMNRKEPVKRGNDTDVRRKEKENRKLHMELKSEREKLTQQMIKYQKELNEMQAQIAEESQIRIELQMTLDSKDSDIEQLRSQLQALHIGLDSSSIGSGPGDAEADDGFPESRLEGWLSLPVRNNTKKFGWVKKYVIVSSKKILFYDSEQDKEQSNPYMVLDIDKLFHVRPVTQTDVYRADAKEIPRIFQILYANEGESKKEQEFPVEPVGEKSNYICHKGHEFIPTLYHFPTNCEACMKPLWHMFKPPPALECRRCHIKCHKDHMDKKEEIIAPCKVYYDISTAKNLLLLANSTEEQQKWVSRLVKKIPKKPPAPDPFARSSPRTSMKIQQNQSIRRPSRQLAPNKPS", "test": "Upstate kinase panel: ROCK-II", "description": "as §1"}, "MAPK2 (h)": {"molecular_target": "T8, MAPK2 (h) (Homo sapiens, UniProt P28482)", "T8 construct": "purchased Upstate", "T8 sequence (P28482 whole entry)": "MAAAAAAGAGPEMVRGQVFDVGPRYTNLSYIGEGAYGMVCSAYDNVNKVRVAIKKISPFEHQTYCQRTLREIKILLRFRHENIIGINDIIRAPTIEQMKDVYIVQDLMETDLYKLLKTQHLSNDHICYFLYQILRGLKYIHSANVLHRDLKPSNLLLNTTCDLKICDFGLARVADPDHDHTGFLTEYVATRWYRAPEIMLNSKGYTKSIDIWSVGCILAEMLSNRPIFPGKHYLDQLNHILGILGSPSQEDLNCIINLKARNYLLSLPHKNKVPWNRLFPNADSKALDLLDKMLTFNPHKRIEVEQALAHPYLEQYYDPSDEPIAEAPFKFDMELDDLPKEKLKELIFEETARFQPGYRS", "test": "Upstate kinase panel: MAPK2", "description": "as §1"}, "cKit (h)": {"molecular_target": "T9, cKit (h) (Homo sapiens, UniProt P10721)", "T9 construct": "purchased Upstate", "test": "Upstate kinase panel: cKit", "description": "as §1"}, "[1]": {"details": "compound 10 μM, 10 μM ATP, read-out: % inhibition at 10 μMol"}, "[2]": {"details": "compound 1 μM, ATP (200), read-out: % inhibition at 1 μMol"}, "[3]": {"details": "compound 1 μM, ATP (10), read-out: % inhibition at 1 μMol"}, "[4]": {"details": "compound 20 μM, 10 μM ATP, read-out: % inhibition at 20 μMol"}}, "data": [{"smiles": "CCOC(=O)c1c[nH]c2c(=O)[nH]c3ccc(S(=O)(=O)Nc4ccc(F)cc4)cc3c12", "note": "[Compound 12, 8-(4-Fluorophenylsulfamoyl)-4-oxo-4,5-dihydro-3H-pyrrolo[2,3-c]quinoline-1-ethyl carboxylate]", "values": [{"measurement": "inhibition at 10 µM", "setting": "PKBγ (h); [1]", "result": 20, "unit": "%"}, {"measurement": "inhibition at 10 µM", "setting": "IKKβ (h); [1]", "result": 0, "unit": "%"}, {"measurement": "inhibition at 10 µM", "setting": "PDGFRβ (h); [1]", "result": 0, "unit": "%"}, {"measurement": "inhibition at 10 µM", "setting": "Flt3 (h); [1]", "result": 51, "unit": "%"}, {"measurement": "inhibition at 10 µM", "setting": "EGFR (h); [1]", "result": 13, "unit": "%"}, {"measurement": "inhibition at 10 µM", "setting": "cSRC (h); [1]", "result": 91, "unit": "%"}, {"measurement": "inhibition at 10 µM", "setting": "ROCK-II (h); [1]", "result": 17, "unit": "%"}, {"measurement": "inhibition at 10 µM", "setting": "MAPK2 (h); [1]", "result": 3, "unit": "%"}, {"measurement": "inhibition at 10 µM", "setting": "cKit (h); [1]", "result": 45, "unit": "%"}]}, {"smiles": "CCOC(=O)c1c[nH]c2c(=O)[nH]c3ccc(-c4cccc(S(C)(=O)=O)c4)cc3c12", "note": "[Compound 238, 8-(3-Methanesulfonyl-phenyl)-4-oxo-4,5-dihydro-3H-pyrrolo[2,3-c]quinoline-1-ethyl carboxylate]", "values": [{"measurement": "inhibition at 1 µM", "setting": "PKBγ (h); [2]", "result": 2, "unit": "%"}, {"measurement": "inhibition at 1 µM", "setting": "IKKβ (h); [3]", "result": 0, "unit": "%"}, {"measurement": "inhibition at 1 µM", "setting": "PDGFRβ (h); compound 1 μM, ATP (120), read-out: % inhibition at 1 μMol", "result": 0, "unit": "%"}, {"measurement": "inhibition at 1 µM", "setting": "Flt3 (h); [2]", "result": 0, "unit": "%"}, {"measurement": "inhibition at 1 µM", "setting": "EGFR (h); [3]", "result": 3, "unit": "%"}, {"measurement": "inhibition at 1 µM", "setting": "cSRC (h); [2]", "result": 7, "unit": "%"}, {"measurement": "inhibition at 1 µM", "setting": "ROCK-II (h); compound 1 μM, ATP (15), read-out: % inhibition at 1 μMol", "result": 5, "unit": "%"}, {"measurement": "inhibition at 1 µM", "setting": "MAPK2 (h); compound 1 μM, ATP (155), read-out: % inhibition at 1 μMol", "result": 0, "unit": "%"}, {"measurement": "inhibition at 1 µM", "setting": "cKit (h); [2]", "result": 4, "unit": "%"}]}, {"smiles": "CCOC(=O)c1c[nH]c2c(=O)[nH]c3ccccc3c12", "note": "[Compound 1, 4-Oxo-4,5-dihydro-3H-pyrrolo[2,3-c]quinoline-1-ethyl carboxylate]", "values": [{"measurement": "inhibition at 20 µM", "setting": "PKBγ (h); [4]", "result": 5, "unit": "%"}, {"measurement": "inhibition at 20 µM", "setting": "IKKβ (h); [4]", "result": 22, "unit": "%"}, {"measurement": "inhibition at 20 µM", "setting": "PDGFRβ (h); [4]", "result": 13, "unit": "%"}, {"measurement": "inhibition at 20 µM", "setting": "Flt3 (h); [4]", "result": 91, "unit": "%"}, {"measurement": "inhibition at 20 µM", "setting": "EGFR (h); [4]", "result": 19, "unit": "%"}, {"measurement": "inhibition at 20 µM", "setting": "cSRC (h); [4]", "result": 86, "unit": "%"}, {"measurement": "inhibition at 20 µM", "setting": "ROCK-II (h); [4]", "result": 8, "unit": "%"}, {"measurement": "inhibition at 20 µM", "setting": "MAPK2 (h); [4]", "result": 1, "unit": "%"}, {"measurement": "inhibition at 20 µM", "setting": "cKit (h); [4]", "result": 20, "unit": "%"}]}]}
